Values of other authors, collected in patent US20190008832A1, “COMPOSITIONS FOR THE TREATMENT OF PRESBYOPIA” (priority 2015, published 2019).

Tested on: eye

CC[C@@H]1C(=O)OC[C@@H]1Cc1cncn1C [pilocarpine]
Side effects in some patients (WO2008/075149 compositions: pilocarpine HCl 1% and diclofenac sodium 0.5%): causes diarrhea and dyspepsia | Percentage of pilocarpine necessary to be effective in the treatment of presbyopia (single active ingredient in a topical composition): greater than 0.5 % by weight | Tolerability of pilocarpine at percentages higher than 0.5% by weight (topical, reddening of the eye, ocular and forehead pain, headaches): not tolerated
